pEC50, pIC50: −log10 of the molar value.

In assay [1] the target is T1, serotonin 5-HT1A receptor (Rattus norvegicus, UniProt P19327).
T1 construct: following the procedure of Hall et al., J. Neurochem; 44, 1685 (1985); from tissue; host or cells: brain tissue (from the cited method)
T1 sequence (P19327 1-422): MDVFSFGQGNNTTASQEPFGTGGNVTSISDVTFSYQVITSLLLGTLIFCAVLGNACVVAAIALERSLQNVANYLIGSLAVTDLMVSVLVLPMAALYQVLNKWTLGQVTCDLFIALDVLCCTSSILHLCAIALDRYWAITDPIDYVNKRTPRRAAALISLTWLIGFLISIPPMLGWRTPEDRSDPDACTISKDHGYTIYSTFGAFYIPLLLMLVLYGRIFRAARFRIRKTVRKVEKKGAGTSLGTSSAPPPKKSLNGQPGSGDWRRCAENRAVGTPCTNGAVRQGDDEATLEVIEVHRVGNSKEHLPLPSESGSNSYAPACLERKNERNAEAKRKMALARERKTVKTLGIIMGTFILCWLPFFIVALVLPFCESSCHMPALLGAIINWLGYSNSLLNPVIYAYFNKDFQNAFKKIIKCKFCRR
Nature of the assay: 5-HT1A Binding: displacement of [3H] 8-OHDPAT. The text has this:
High affinity for the serotonin 5-HT1A receptor was established by testing the claimed compound's ability to displace [^3 H] 8-OHDPAT (dipropylaminotetralin) from the 5-HT1A serotonin receptor following the procedure of Hall et al., J. Neurochem. 44, 1685 (1985). […] The anxiolytic activity of buspirone is believed to be, at least partially, due to its 5-HT1A receptor affinity (Vander Maclen et al., Eur. J. Pharmacol. 1986, 129 (1-2) 133-130).
(Displacement assays read how much labelled ligand stays bound in the presence of the test substance.)

In assay [2] the target is T2, dopamine D-2 receptor (Rattus norvegicus, UniProt P61169).
T2 construct: from tissue; host or cells: homogenized limbic brain tissue
Kind of assay: D-2 Binding: displacement of 3H-spiroperidol in homogenized limbic brain tissue. How it is done: High affinity for the dopamine D2 receptor was established by the standard experimental test procedure of Fields, et al., Brain Res., 136, 578 (1977) and Yamamura et al., eds., Neurotransmitter Receptor Binding, Raven Press, New York (1978) wherein homogenized limbic brain tissue is incubated with ^3 H-spiroperidol and various concentrations of test compound, filtered and washed and shaken with Hydrofluor scintillation cocktail (National Diagnostics) and counted in a Packard 460 CD scintillation counter.

The subject of assay [3] is 5-HT1A receptor. As to conditions: cited from earlier work.
The subject of assay [4] is serotonin syndrome (5-HT1A). Nature of the assay: Production of the serotonin syndrome (agonist activity). It is filed as in vivo, male Sprague-Dawley CD rats. As to conditions: for ED50: Rattus norvegicus, 0.25 h, first 15 minutes after compound administration, read-out: ED50 for producing the serotonin syndrome. How it is done:
(§1) Certain of the compounds of this invention were also compared to buspirone in their ability to either produce or antagonize the serotonin syndrome according to the procedure of Smith and Peroutka, Pharmacol. Biochem. Behav. 24: 1513-1519, 1986, in which 250-350 g male Sprague-Dawley CD rats (Charles River) are given either test compound or vehicle and placed individually into plexiglass observation cages. Agonist activity of the compound is determined by scoring for the presence of the serotonin syndrome (forepaw treading, head weaving, tremor, hindlimb abduction, flattened body posture, and Straub tail) during the first 15 minutes after compound administration. Antagonist activity is then determined by a challenge with either of the 5-HT1A agonists 5-methoxy-N,N-dimethyltryptamine (5-MeODMT) or 8-hydroxydipropylaminotetralin.

Assay [5] deals with serotonin syndrome (5-HT1A). Nature of the assay: Antagonism of 5-HT1A agonist-induced (5-MeODMT or 8-OH-DPAT) serotonin syndrome. The note with it: for ED50: Rattus norvegicus, rats. The class given is in vivo, male Sprague-Dawley CD rats. How it is done: as §1
Assay [6] concerns the target T1, serotonin 5-HT1A receptor. As to conditions: buspirone, standard for anxiolytic activity; cited from earlier work.

T2 sequence (P61169 whole entry): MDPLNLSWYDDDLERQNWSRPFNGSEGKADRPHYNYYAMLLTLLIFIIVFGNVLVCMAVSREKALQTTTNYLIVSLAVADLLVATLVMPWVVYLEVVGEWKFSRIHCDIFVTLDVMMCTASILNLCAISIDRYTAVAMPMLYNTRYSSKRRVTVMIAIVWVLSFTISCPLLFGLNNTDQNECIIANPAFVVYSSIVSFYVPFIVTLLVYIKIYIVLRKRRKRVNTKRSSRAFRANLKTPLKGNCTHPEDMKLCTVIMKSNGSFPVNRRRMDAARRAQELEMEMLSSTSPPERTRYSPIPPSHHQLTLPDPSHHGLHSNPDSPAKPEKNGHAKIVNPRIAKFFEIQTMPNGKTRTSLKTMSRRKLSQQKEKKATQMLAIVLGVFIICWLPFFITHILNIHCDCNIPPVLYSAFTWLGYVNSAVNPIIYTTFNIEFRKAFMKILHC

Broadly, the inhibition is how much of the control response was suppressed. Regarding `O=C(NCCNCC1COc2ccccc2O1)C12CC3CC(CC(C3)C1)C2` (stereo not drawn) [Example 1, N-[2-[[(2,3-Dihydro-1,4-benzodioxin-2-yl)methyl]amino]ethyl]tricyclo[3,3,1,1(3,7)]-decane-1-carboxamide], at 0.1 µM the inhibition in assay [1] was 100%. In assay [2], this compound registered an inhibition at 1 µM of 83%.
In the case of `O=C1CC2(CCCC2)CC(=O)N1CCCCNCC1COc2ccccc2O1` (stereo not drawn) [MDL 72832, 8-[4-(1,4-benzodioxan-2-ylmethylamino)butyl]-8-azaspiro[4.5]decane-7,9-dione], the “5-HT1A ligand character (in words)” value in assay [3] is “selective and stereospecific”.
Broadly, the pIC50 is the IC50 on a negative log10 scale, so that one unit is a factor of ten. Low values mean a high IC50, high ones a low IC50. In the case of `CC1(C)[C@H]2CC[C@]1(CS(=O)(=O)NCCNCC1COc3ccccc3O1)C(=O)C2` (single isomer, unassigned) [Example 8], at 0.1 µM the inhibition in assay [1] was 90%. Also, the negative logarithm of the IC50 (pIC50) in assay [1] (5-HT1A binding) was 8.05. The compound also returned an inhibition at 1 µM in assay [2] of 49%.
As to `O=C(NCCNCC1COc2ccccc2O1)NC12CC3CC(CC(C3)C1)C2` (stereo not drawn) [Example 3, N-[2-[(2,3-Dihydro-1,4-benzodioxin-2-yl)methylamino]ethyl]-N'-tricyclo[3,3,1,1(3,7)]dec-1-ylurea], the “production of the serotonin syndrome on its own” value in assay [4] (compound alone, rats) was “did not produce the syndrome on its own”. This compound showed an inhibition at 0.1 µM in assay [1] of 98%. Further, in assay [1] (5-HT1A binding), the pIC50 is 8.30. Besides, at 1 µM the inhibition in assay [2] was 27%. The “ability to antagonize the serotonin syndrome” value in assay [5] (1.0, 3.3, 10.0, and 33.0 mg/kg) is on record as “mimicked buspirone's ability to antagonize the serotonin syndrome”.
Broadly, the ED50 is the dose at which the effect has come halfway, by size or by number of responders. What is called pEC50 is the EC50 on a negative log10 scale, so that one unit is a factor of ten. Consider `CC1(C)C2CCC1(C(=O)NCCNCC1COc3ccccc3O1)C(=O)C2` (single isomer, unassigned; (+)) [Example 5, (+)-N-[2-[[(2,3-Dihydro-1,4-benzodioxin-2-yl)methyl]amino]ethyl]-7,7-dimethyl-2-oxobicyclo[2,2,1]heptane-1-carboxamide], for which the ED50 is 3.8 mg/kg in assay [4] (rats) and 4.7 mg/kg in assay [5] (challenge with 8-OH-DPAT, read-out: ED50 for antagonizing 8-OH-DPAT induced syndrome). This compound came in with an inhibition at 0.1 µM in assay [1] of 97%. The same compound gave a pEC50 in assay [1] (5-HT1A binding, given as EC50) of 8.52. Moreover, in assay [2], the inhibition at 1 µM turned out to be 34%.
Take `CC1(C)C2CCC1(C(=O)NCCNCC1COc3ccccc3O1)C(=O)C2` (single isomer, unassigned; (-)) [Example 6]: the “characterization as agonist/antagonist in the serotonin syndrome test” value in assay [4] (single dose of 20 mg/kg) was “partial agonist”. This compound also gave an inhibition at 0.1 µM in assay [1] of 88%. In assay [2], testing at 1 µM gave an inhibition of 34%.
In assay [1], `O=C(NCCNCC1COc2ccccc2O1)NC12CC3CC(CC1C3)C2` (stereo not drawn) [Example 4, N-[2-[(2,3-Dihydro-1,4-benzodioxin-2-yl)methyl]aminoethyl-N'-hexahydro-2,5-methanopentalen-3a(1H)-yl]urea] gave an inhibition at 0.1 µM of 95%. The compound also yielded an inhibition at 1 µM in assay [2] of 55%.
With `O=C1CC2(CCCC2)CC(=O)N1CCCCN1CCN(c2ncccn2)CC1` [buspirone, reference compound], the ED50 in assay [4] (rats) came out at 7.3 mg/kg; in assay [5] (challenge with 5-MeODMT, read-out: ED50 for antagonizing 5-MeODMT-induced syndrome), 4.6 mg/kg. In assay [4] (buspirone: from ED50s for production and antagonism), the “characterization as agonist/antagonist in the serotonin syndrome test” value is on record as “partial agonist”. Also, the “affinity for the 5-HT1A serotonin receptor subtype (in words)” value in assay [6] is recorded as “potent affinity”.
As for `O=C(OCCNCC1COc2ccccc2O1)C12CC3CC(CC(C3)C1)C2` (stereo not drawn) [Example 2, Tricyclo[3,3,1,1(3,7)]decane-1-carboxylic acid 2-[[(2,3-dihydro-1,4-benzodioxin-2-yl)methyl]amino]ethyl ester], at 0.1 µM the inhibition in assay [1] was 100%. Besides, testing at 1 µM in assay [2] gave an inhibition of 91%.
In assay [1], `O=C(NCCNCC1COc2ccccc2O1)C12CC3CC(CC1C3)C2` (stereo not drawn) [Example 7, N-[2-[[(2,3-Dihydro-1,4-benzodioxin-2-yl)methyl]amino]ethyl]hexahydro-2,5-methanopentalene-3a(1H)-carboxamide] showed an inhibition at 0.1 µM of 98%. The inhibition at 1 µM in assay [2] was determined as 81%.
On to `O=C1CC2(CCCC2)CC(=O)N1CCCCNCC1COc2ccccc2O1` (single isomer, unassigned; (-)) [(-)-MDL 72832], for which the “binding relative to the dextrorotary isomer at the 5-HT1A receptor site” value in assay [3] ((-)-isomer vs dextrorotary isomer) was 32 times.

The record behind these values is patent publication US5126367A, “Psychotropic benzodioxan derivatives” (American Home Products Corporation, priority 1991, dated 1992).
